Source: paper PMC12366525, “Characterization of allosteric modulators that disrupt androgen receptor co-activator protein-protein interactions to alter transactivation–Drug leads for metastatic castration resistant prostate cancer” (SLAS discovery : advancing life sciences R & D, 2023)
Where “and” joins values, the source holds several entries; their conditions need not be identical. Equal values may be shown once.

Columns and labels:
AR-TIF2 PPI = molecular target: T1, AR-TIF2 PPI (Homo sapiens, UniProt P10275); experiment: AR-TIF2 PPI biosensor (PPIB) HCS assay, inhibition of DHT-induced AR-TIF2 PPI formation; format: cell-based; conditions: for IC50: U-2 OS cells, compounds 3 h prior to 25 nM DHT for 90 min
T1 construct: expressed in transfected cells; host or cells: U-2 OS osteosarcoma cells, co-infected with recombinant adenoviruses
T1 sequence (P10275 663-920 limits assumed): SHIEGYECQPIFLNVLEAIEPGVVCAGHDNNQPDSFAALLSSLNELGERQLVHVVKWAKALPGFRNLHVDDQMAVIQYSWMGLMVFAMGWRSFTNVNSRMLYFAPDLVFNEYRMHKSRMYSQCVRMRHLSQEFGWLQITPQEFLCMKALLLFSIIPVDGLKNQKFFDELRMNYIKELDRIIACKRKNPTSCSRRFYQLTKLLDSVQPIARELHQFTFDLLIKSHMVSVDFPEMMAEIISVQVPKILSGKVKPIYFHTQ
Experimental: Daughter plates containing 2 μL of the serially diluted compounds in DMSO were prepared and replicated from 384-well serial dilution master plates using a Janus MDT platform outfitted with a 384-well transfer head. Aluminum adhesive plate seals were applied, and plates were stored at −20 °C. For bioassay testing, daughter plates were withdrawn from −20 °C storage, thawed to ambient temperature, and centrifuged for 1 min at 100 × g, and plate seals were removed before 38 μL of serum-free media (SFM) was transferred into wells using a Matrix pipettor (ThermoFisher, Waltham, MA), to generate an intermediate stock concentration of validation compounds ranging from 0.977 to 500 μM (5.0% DMSO). Diluted compounds were mixed by repeated aspiration and dispensation using a 384-well P30 dispensing head on the Janus MDT platform and then, 5 μL of diluted compounds was transferred to assay plate wells to provide a final concentration range from 0.0977 to 50 μM (0.5% DMSO).
The AR-TIF2 PPIB HCS assay was performed in U-2 OS osteosarcoma cells as described previously. Briefly, U-2 OS cells were coinfected with recombinant adenovirus biosensor expression constructs and seeded at 2500 cells per well in 384-well collagen-coated microplates (Greiner BioOne #781956) and plates were incubated overnight at 37°C in 5% CO2 and 95% humidity. […] After the appropriate time, assay plates were fixed by transfer of 50 μL of pre-warmed (37°C) 7.4% formaldehyde and 2 μg/mL Hoechst 33342 in PBS and incubation at room temperature for 30 min. Liquid was aspirated, plates were washed twice with 85 μL PBS, leaving the final wash in the plate. Plates were sealed with adhesive aluminum plate seals, and fluorescent images of three fields of view were acquired in the DAPI (Hoechst stained nuclei), FITC (TIF2-GFP) and Texas Red (AR-RFP) channels on an ImageXpress Micro (IXM) automated HCS platform (Molecular Devices LLC, Sunnyvale, CA) using a 10X Plan Fluor 0.3 NA objective. Images were analyzed using the Translocation Enhanced (TE) image analysis module of the MetaXpress software as described previously.
In 384-well assays, DMSO minimum (n = 32) and maximum (n = 32) plate control wells were utilized to calculate signal-to-background ratios (S:B) and Z’-factor coefficient assay performance quality control statistics, and to normalize the signals of compound treated wells and to represent 0% and 100% respectively. For the 96-well AR-LBD H^3-DHT radioligand binding assay, eight minimum and maximum plate control wells were utilized to normalize the data. For the PC cell line growth inhibition assays we used the DMSO control data from the T0 and T72 assay plates to assess the dynamic range of the T0 to T72 cell growth, and to calculate S:B ratios and Z’-factor coefficient statistics for the assay signal window (T0 to T72). To normalize the 72 h compound exposure PC growth inhibition data, the signals from the compound treated wells were processed and expressed as% of the T72 DMSO plate controls. IC50 and GI50 values for each of the bioassays were calculated using Graph-Pad Prism 9 software to plot and fit data to curves using the Sigmoidal dose response variable slope equation Y = Bottom + [Top-Bottom]/ [1 + 10^^(LogEC50-X)*HillSlope].

full length AR = molecular target: T2, full length AR (Homo sapiens, UniProt P10275, T878A); experiment: PSA-6.1 luciferase reporter assay in C4–2 CRPC cells; format: cell-based; conditions: C4–2 cells; 50 nM DHT; 24 h; read-out: C4–2 PSA6.1-Luc Reporter IC50
T2 construct: DHT-induced full length AR directed TA; endogenous in cells; host or cells: C4–2 castration resistant prostate cancer cells
T2 sequence (P10275 1-920 T878A): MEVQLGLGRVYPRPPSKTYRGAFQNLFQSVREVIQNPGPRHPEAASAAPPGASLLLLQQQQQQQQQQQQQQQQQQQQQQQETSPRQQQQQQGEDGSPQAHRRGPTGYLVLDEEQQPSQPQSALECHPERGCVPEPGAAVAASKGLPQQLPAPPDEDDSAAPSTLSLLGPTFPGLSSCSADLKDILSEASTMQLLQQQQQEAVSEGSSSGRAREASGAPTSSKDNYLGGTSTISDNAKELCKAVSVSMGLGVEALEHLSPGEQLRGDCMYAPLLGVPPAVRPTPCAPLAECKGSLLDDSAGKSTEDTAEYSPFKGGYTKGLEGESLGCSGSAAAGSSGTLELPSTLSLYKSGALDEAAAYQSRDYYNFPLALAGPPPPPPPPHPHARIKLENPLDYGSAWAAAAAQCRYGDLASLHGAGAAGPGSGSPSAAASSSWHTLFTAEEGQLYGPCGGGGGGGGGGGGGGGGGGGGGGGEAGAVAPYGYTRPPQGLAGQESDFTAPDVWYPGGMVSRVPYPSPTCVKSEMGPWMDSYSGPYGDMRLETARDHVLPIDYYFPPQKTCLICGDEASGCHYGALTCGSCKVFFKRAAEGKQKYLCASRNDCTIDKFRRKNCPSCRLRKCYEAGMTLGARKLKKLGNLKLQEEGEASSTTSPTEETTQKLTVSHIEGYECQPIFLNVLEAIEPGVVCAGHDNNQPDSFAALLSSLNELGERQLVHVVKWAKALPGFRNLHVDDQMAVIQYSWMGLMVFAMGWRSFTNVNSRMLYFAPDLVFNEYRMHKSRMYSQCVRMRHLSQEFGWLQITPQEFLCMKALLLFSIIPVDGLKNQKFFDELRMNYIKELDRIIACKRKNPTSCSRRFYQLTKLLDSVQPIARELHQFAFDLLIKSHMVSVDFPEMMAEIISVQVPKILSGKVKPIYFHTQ
Experimental: The PSA-6.1-Luc luciferase reporter plasmid was provided by Dr. Zhou Wang in the Urology department of the University of Pittsburgh Cancer Institute. The PSA-6.1-Luc reporter is controlled by a fragment of the PSA promoter that contains at least three AREs. The PSA-6.1-Luc plasmid (12 ng/well) was combined with Fugene 6 at a ratio 6:1 in SFM and incubated for 25 min at room temperature before being combined with C4–2 cells suspended in RPMI 1640 media containing 1% penicillin-streptomycin, 1% L-glutamine, and 10% FBS. Transfected cells were then seeded into white opaque 384-well assay plates (Greiner Bio-one, #781080) at 6000 cells per well in a volume of 30 μL and incubated in 5% CO2, 37 °C, and 95% humidity for 24 h.

Which IC50 (AR-TIF2 PPI) does the source give for `Cc1ccccc1-c1cc(O)c2c(c1)CN(c1nc(C(N)=O)cs1)CCO2` [S1–1] here?
Its IC50 is 5.64 µM.

What about the IC50 (full length AR) of the same molecule?
Its IC50 is 17.1 µM.

Which results are given for `Cc1ccccc1-c1cc(O)c2c(c1)CN(c1nccs1)CCO2` [S1–3]?
IC50 (AR-TIF2 PPI): 30.5 µM; IC50 (full length AR): 29.7 µM

`Cc1nsc(NC(=O)N2CCC(Sc3ccccc3C)CC2)n1` [S2–6] was tested. Which IC50 (AR-TIF2 PPI) did it give?
Its IC50 is 1.06 µM.

And the IC50 (full length AR)?
The IC50 was 2 µM and 2.3 µM.

How did the IC50 (AR-TIF2 PPI) turn out when `Cc1c(-c2ccccc2F)[nH]c2ccc(CNC(=O)CCc3cn[nH]c3)cc12` [S3–11] was run?
The IC50 was 3.25 µM and 3.2 µM.

And the IC50 (full length AR)?
The IC50 was 9 µM.

With `Cc1c(-c2ccccc2F)[nH]c2ccc(CNC(=O)CCc3cnccn3)cc12` [S3–12] as the molecule, how does the IC50 (AR-TIF2 PPI) read?
Its IC50 is 4.24 µM.

What about the IC50 (full length AR) of the same molecule?
Its IC50 is 7.7 µM.

Which IC50 (AR-TIF2 PPI) does the source give for `CC(=O)NCCC(=O)NCc1ccc2[nH]c(-c3ccccc3F)c(C)c2c1` [S3–13] here?
The IC50 was 7.16 µM.

What about the IC50 (full length AR) of the same molecule?
The IC50 was 58.5 µM.

What does the source list for `Cc1c(-c2ccccc2F)[nH]c2ccc(CNC(=O)c3ccc(CO)o3)cc12` [S3–14]?
IC50 (AR-TIF2 PPI): 2.13 µM; IC50 (full length AR): 10.8 µM

Which results are given for `Cc1c(-c2ccc(F)cc2)[nH]c2ccc(CNC(=O)c3ccc(CO)o3)cc12` [S3–15]?
Reduction in relative potency versus parent hit in AR-TIF2 PPIB assay formats (AR-TIF2 PPI; S1 analogs vs S1–1, S3–15 vs S3–14): ~ 2 fold; IC50 (AR-TIF2 PPI): 5.11 µM; IC50 (full length AR): 7 µM
